Assay [1] deals with colchicine site on tubulin (Porcine brain tubulin). The experiment in a line: Colchicine displacement assay, fluorometric detection. It is filed as binding. As to conditions: 2 μM porcine brain tubulin, 2 μM colchicine, compound at 20 μM, 2 h; control = colchicine bound to tubulin. As to the method:
To study whether the compounds bind to the colchicine site on tubulin, a colchicine displacement assay using fluorometric detection was performed as previously described (Bhattacharyya B. et al.; Proc Natl Acad Sci U S A 1974, 71:2627-31; Risinger A L. et al.; J Pharmacol Exp Ther 2011: 336:652-60). Porcine brain tubulin at 2 μM (Cytoskeleton) in a buffer consisting of 80 mM PIPES, 2 mM MgCl2, 0.5 mM EGTA at pH 7.0 with addition of 1 mM GTP, was incubated alone, with 2 μM colchicine or with 2 μM colchicine in the presence of test compounds or reference compound combretastatin A4 at 20 μM for 2 h in a black half-area 96-well plate (Corning Inc, Corning, N.Y., USA). Thereafter, the fluorescence was measured using a FLUOStar Optima (BMG Labtech) at an excitation of 380 nm and emission of 440 nm. The results are presented as percent of control i.e. colchicine bound to tubulin.

The subject of another assay is A2780/Adr. The experiment in a line: FMCA cytotoxicity, multidrug-resistant ovarian cancer cell line A2780/Adr. It is filed as cell-based. The source says: (§1) The Fluorometric Microculture Cytotoxicity Assay, FMCA (Larsson, R., et al.; Anticancer Res, 1989, 9, 1111-1119), is a three day non-clonogenic microplate-based cell viability assay used for measurement of the cytotoxic and/or cytostatic effect of compounds in vitro (Lindhagen, E. et al.; Nat. Protoc., 2008, 3, 1364-1369). FMCA represents a valuable method to measure cytotoxicity in a number of cell types, both cell lines and primary cells from patients (Larsson, R., et al.; Int. J. Cancer, 1992, 50, 177-185; Fridborg, H., et al.; Eur. J. Cancer, 1999. 35, 424-432; Dhar, S., et al.; Br. J. Cancer, 1996, 74, 888-896).
(§2) FMCA is based on the principle that fluorescein diacetate (FDA) is converted to the fluorescent probe fluorescein by esterases […]. For experiments, 96-well microplates are prepared with compounds and stored at −20° C. or −70° C. until use. Cells are then seeded into the drug-prepared plates and placed in an incubator for 72 h. On the last day of incubation, the plates are washed and a buffer containing FDA is added and incubated with the cells for 45 minutes. Finally the fluorescence per well is measured in a fluorometer and a Survival Index % (SI) for each compound-treated well is calculated with the equation: Compound-treated cells minus blank divided by control cells minus blank. A high SI-value indicates a large percentage of living cells and vice versa.
(§3) To obtain EC50-values, plates were prepared with compounds serially diluted in culture media to suitable concentration ranges for each compound. Thereafter cells were added at a density of 10 000 cells per well and FMCA was performed after 72 h. Data analysis was performed using GraphPadPrism software, where SI values for each concentration were plotted on a log scale and processed with non-linear regression and a standard sigmoidal dose-response model.
(§4) The compounds of the invention were also tested on further cancer cell lines related to ovarian cancer (A2780; see e.g. Hamilton, T. et al.; Semin. Oncol., 1984, 11, 285-298) and multidrug-resistant ovarian cancer (A2780/Adr). The known microtubule interfering agents vincristine and paclitaxel were included as references in the resistant and non-resistant ovarian cancer cell lines.

For a further assay, the system named is A2780. As to the kind of experiment: FMCA cytotoxicity, ovarian cancer cell line A2780. The assay is classed as cell-based. As to conditions: Homo sapiens.
From the text: as §1, §2, §3, §4

Another assay deals with bovine tubulin protein. As to the kind of experiment: Tubulin polymerization assay kit (Cytoskeleton Inc), fluorescence. The assay is classed as biochemical. The following applies: cell-free, example compounds at 1, 3 and 10 μM, controls at 3 μM, 60 mins, read-out: Inhibition of tubulin polymerization IC50. As to the method:
Example compounds were further tested in a tubulin polymerization assay kit from Cytoskeleton Inc (Denver, Colo., USA). Polymerization is followed by fluorescence enhancement due to the incorporation of a fluorescent reporter into microtubules as polymerization occurs. Vincristine and paclitaxel at 3 μM were used as positive controls for tubulin polymerization inhibition and stabilisation, respectively. All compounds were dissolved in DMSO, which was used as solvent control. For experiments, example compounds (1, 3, and 10 μM) and control compounds (3 μM) were incubated with bovine tubulin protein in a cell-free environment and the fluorescence was then measured in a fluorometer (Fluostar Optima, BMG Labtech, Offenburg, Germany) at 360/450 nm every minute for a total of 60 mins.

The test system of assay [2] is CCRF-CEM cancer cells - leukemia. The experiment in a line: Fluorometric Microculture Cytotoxicity Assay (FMCA), CCRF-CEM. It is filed as cell-based. The following applies: Homo sapiens, 72 h, CCRF-CEM acute lymphoblastic leukemia cell line.
From the text: as §1, §2
For experiments with compounds of the invention, 96-well plates were prepared as follows: Compounds were dissolved in DMSO to 10 mM and stored at −20° C. The test compounds were thawed, protected from light, mixed, and 3 μl stock solution was added to test tubes containing 297 μl culture medium RPMI-1640, to give the concentration 100 μM. Then, compounds were serially diluted to concentrations ten times higher than the desired test concentrations. Finally, 20 μl of each compound solution was added in duplicates to wells in two V-bottomed 96-well plates. The plates were stored at −20° C. until use.
On the day of cell seeding, 180 μl of cell suspension was added to each well in the two assay plates. The final concentrations of compounds tested were 10 μM, 1 μM, 0.1 μM and 0.01 μM. The experiment was performed twice.
In subsequent experiments, compounds were tested, along with a number of approved cancer drugs (dasatinib and pazopanib) as described above. The acute lymphoblastic leukemia cell line CCRF-CEM was used throughout. In the assay plates, medium was added to eight empty wells (blank wells) and wells filled with cell suspension served as control wells. SI-values were then calculated for each compound-treated well as described above. All experiments were conducted twice and a new batch of plates was prepared for each experiment.
as §3

Assay [3] deals with VEGF-induced cord formation. As to the kind of experiment: VEGF-driven vascular cord formation, stem cell co-culture model of angiogenesis (StemKit), neo-angiogenic setting. It is filed as cell-based. As to the method: (§5) To study the vascular disrupting properties of one of the compounds, example 3, an evaluation of its inhibitory and disruptive effects on VEGF-driven vascular cord formation in an in vitro stem cell co-culture model of angiogenesis (StemKit, Essen Bioscience) was carried out.

In another assay the test system is established vessels. As to the kind of experiment: Stem cell co-culture model of angiogenesis (StemKit), established vessels. The assay is classed as cell-based. The following applies: doses from 3 nM up to 100 nM, example 3 and combretastatin A4 had equal potency. As to the method:
as §5

pEC50, pIC50: −log10 of the molar value.

What is called pEC50 is the EC50 on a negative log10 scale, so that one unit is a factor of ten. A higher pEC50 goes with a low EC50. What is called pIC50 is the negative decadic logarithm of the IC50, by convention in mol/L. As to `CCOc1ccc2[nH]cc(CCNc3nc(C)cc(Nc4ccc5c(C)n(C)nc5c4)n3)c2c1` [Example 6, N^4-(2,3-dimethylindazol-6-yl)-N^2-[2-(5-ethoxy-1H-indol-3-yl)ethyl]-6-methyl-pyrimidine-2,4-diamine], in assay [1], the “Colchicine-tubulin binding Percent of control” value is 99% of control. Also, the pEC50 in the assay with A2780/Adr is 6.41; in the assay on A2780 it was 7.33; in assay [2] it was 7.47. For the same compound, in the assay with bovine tubulin protein, the negative logarithm of the IC50 (pIC50) was 5.00 to 5.52.

As to `CCOc1ccc2[nH]cc(CCNc3nccc(Nc4ccc5cn(C)nc5c4)n3)c2c1` [Example 3, N^2-[2-(5-ethoxy-1H-indol-3-yl)ethyl]-N^4-(2-methyl-2H-indazol-6-yl)pyrimidine-2,4-diamine], the “Colchicine-tubulin binding Percent of control” value in assay [1] is on record as 68% of control. In assay [3] (from the lowest tested dose 4.6 nM up to 10 μM), the “inhibition of VEGF-induced cord formation” value is reported as 100%. The pEC50 with A2780/Adr was 7.80; in the assay with A2780 it was 9.14; in assay [2], 8.28. Also, the “disruption of established blood vessels” value in the assay on established vessels is reported as “concentration dependent disruption of blood vessels”. Also, the negative logarithm of the IC50 (pIC50) in the assay on bovine tubulin protein is ~5.52.

Take `CC(=O)O[C@H]1C(=O)[C@@]2(C)[C@H]([C@H](OC(=O)c3ccccc3)[C@]3(O)C[C@H](OC(=O)[C@H](O)[C@@H](NC(=O)c4ccccc4)c4ccccc4)C(C)=C1C3(C)C)[C@]1(OC(C)=O)CO[C@@H]1C[C@@H]2O` [Paclitaxel, paclitaxel, reference compound]: the negative-log EC50 (pEC50) in the assay on A2780/Adr is 6.09; with A2780 it was 9.59.

With `CCOc1ccc2[nH]cc(CCNc3nccc(Nc4cccc5c4cnn5C)n3)c2c1` [Example 1], the “Colchicine-tubulin binding Percent of control” value in assay [1] is on record as 68% of control. Further, the negative logarithm of the EC50 (pEC50) with A2780/Adr was 8.44; in the assay on A2780 it was 9.40; in assay [2] it was 8.72. Moreover, in the assay on bovine tubulin protein, the negative logarithm of the IC50 (pIC50) is 5.52 to 6.00.

For the compound `Cc1ccc(Nc2nccc(N(C)c3ccc4c(C)n(C)nc4c3)n2)cc1S(N)(=O)=O` [Ref. 2, pazopanib, reference compound], in assay [2], the negative-log EC50 (pEC50) was 4.59.

On to `COc1ccc2[nH]cc(CCNc3nccc(Nc4ccc5cn(C)nc5c4)n3)c2c1` [Example 2, N^2-[2-(5-methoxy-1H-indol-3-yl)ethyl]-N^4-(2-methyl-2H-indazol-6-yl)pyrimidine-2,4-diamine], for which, in assay [1], the “Colchicine-tubulin binding Percent of control” value is listed as 77% of control. Besides, the negative logarithm of the EC50 (pEC50) with A2780/Adr is 7.47; in the assay with A2780, 8.03; in assay [2] it was 8.29.

For the compound `COc1ccc2[nH]cc(CCNc3nccc(Nc4ccc5c(C)n(C)nc5c4)n3)c2c1` [Example 4, N^4-(2,3-dimethyl-2H-indazol-6-yl)-N^2-[2-(5-methoxy-1H-indo1-3-yl)ethyl]pyrimidine-2,4-diamine], the “Colchicine-tubulin binding Percent of control” value in assay [1] is 94% of control. Besides, the results for the pEC50 (in the assay on A2780/Adr; in the assay with A2780; in assay [2]) were 6.43, 7.47 and 7.96, respectively. Further, the negative-log IC50 (pIC50) in the assay on bovine tubulin protein is ~5.52.

Regarding `CC[C@]1(O)C[C@H]2CN(CCc3c([nH]c4ccccc34)[C@@](C(=O)OC)(c3cc4c(cc3OC)N(C=O)[C@H]3[C@@](O)(C(=O)OC)[C@H](OC(C)=O)[C@]5(CC)C=CCN6CC[C@]43[C@@H]65)C2)C1` [Vincristine, vincristine, reference compound], the pEC50 in the assay on A2780/Adr is 6.68; with A2780 it was 9.66. For the same compound, in the assay on bovine tubulin protein, the pIC50 is > 5.52.

`CCOc1ccc2[nH]cc(CCNc3nccc(Nc4ccc5c(C)n(C)nc5c4)n3)c2c1` [Example 5, N^4-(2,3-dimethyl-2H-indazol-6-yl)-N^2-[2-(5-ethoxy-1H-indol-3-yl)ethyl]pyrimidine-2,4-diamine]: the negative logarithm of the EC50 (pEC50) in the assay on A2780/Adr was 6.82; in the assay on A2780, 8.07; in assay [2], 8.26.

Turning to `Cc1nc(Nc2ncc(C(=O)Nc3c(C)cccc3Cl)s2)cc(N2CCN(CCO)CC2)n1` [Ref. 1, dasatinib, reference compound], the pEC50 in assay [2] was 5.01.

Regarding `COc1ccc(/C=C\c2cc(OC)c(OC)c(OC)c2)cc1O` [Combretastatin A4, combretastatin A4, reference compound], the “Colchicine-tubulin binding Percent of control” value in assay [1] is reported as 66% of control. Also, the “threshold concentration of inhibitory effect on VEGF-induced cord formation” value in assay [3] (tested from 0.78 nM and upwards, dose dependent inhibitory effect) came out at 1.6 nM. The “disruption of established blood vessels” value in the assay with established vessels is on record as “concentration dependent disruption of blood vessels”.

Turning to `COc1ccc2[nH]cc(CCNc3nccc(Nc4cccc5c4cnn5C)n3)c2c1` [Example 7, N^2-[2-(5-methoxy-1H-indol-3-yl)ethyl]-N^4-(1-methylindazol-4-yl)pyrimidine-2,4-diamine], the “Colchicine-tubulin binding Percent of control” value in assay [1] is on record as 64% of control. In addition, the figures for the pEC50 (in the assay on A2780/Adr; in the assay on A2780; in assay [2]) were 7.89, 8.54 and 8.29, respectively.

The values above are taken from patent publication US20150225374A1, “4-INDAZOLYLAMINO-2-(2-(INDOL-3-YL)ETHYL)AMINOPYRIMIDINES USEFUL FOR THE TREATMENT OF CANCER” (NOVIGA RESEARCH AB, priority 2012, published 2015).
